Peptide text beside a SMILES is read from it.
Columns and labels:
DU145 cells [1] = test: TUNEL assay; format: cell-based, Human; conditions: peptide 30 min, then cisplatin 5 μg/ml 16 h; CB5003 40 μM, CB5002 72 μM, CB5007 30 μM
Protocol: DU145 cells were grown on 8-well chamber slides to a confluence of 70-80%. The cells were then incubated with different concentrations of peptides or diluent for 30 min at 37° C. followed by the treatment with cisplatin (5 μg/ml) or diluent for an additional 16 h. The cells were air-dried and fixed in 4% paraformaldehyde at room temperature for 1 h. The cells were then washed with PBS and permeabilized with permeabilization solution (0.1% Triton X-100 in 0.1% sodium citrate) for 2 min on ice. Apoptosis was detected using TUNEL method “in situ cell death detection POD” according to the manufacturer's instructions (Roche, Indianapolis, Ind.). The fluorescein-labeled DNA strand breaks due to apoptosis were visualized under light microscope (Microstar IV, Reichard, Buffalo, N.Y.) by using anti-fluorescein antibody conjugated POD (peroxidase) at ×40 magnification. The images were analyzed using a Pixera digital camera.

DU145 cells [2] = test: Flow cytometric analysis of annexin V/PI stained cells; format: cell-based, Human; conditions: for induction of apoptosis by co-treatment with cisplatin (flow cytometry): CB5005 30 μM, CB5003 72 μM, CB5002 72 μM, cisplatin 5 μg/ml
Protocol: PCA cells were grown on 60-mm dishes to a confluence of 50-60%. These cells were incubated with different concentrations of peptides for 30 min at 37° C. followed by the treatment with TNF-α (10 ng/ml), cisplatin (2-30 μg/ml), etoposide (2-20 μg/ml) or diluent for an additional 21 h at 37° C. Phosphatidylserine exposure on apoptotic cells was measured by their ability to bind Annexin V. Specifically, cells were harvested by trypsinization. The trypsinized cells, media and PBS washes were combined and cells collected by centrifugation. […] Stained cells were analyzed by flow cytometry. A minimum 20,000 events for each sample was measured.

DU145 cells [3] = test: Indirect immunofluorescence assay for peptide cellular import; format: cell-based, Human; conditions: different concentrations of peptides, 1 h at 37° C.
Protocol: DU145 cells were grown on 8-well chamber slides (Nunc, Naperville, Ill.) to a confluence of 80%. These cells were then incubated with diluent or different concentrations of peptides in RPMI without serum for 1 h at 37° C. The cells were washed three times with cold PBS to remove the extracellular peptides and then fixed with 3.5% paraformaldehyde solution in PBS at 4° C. for 20 min. The fixed cells were washed three times with cold PBS and treated with 0.25% Triton X-100 for 10 min. The washed cells were then incubated with anti-peptide IgG in PBS for 1 h. After three 5 min washings with PBS, the intracellular peptides (via peptide-antibody complexes) were subsequently detected with FITC-labeled goat anti-rabbit IgG (Pierce, Rockford, Ill.) after 1 h incubation. Cover slips with stained cells were mounted in Poly/Mount (Polysciences, Warrington, Pa.) and analyzed with Microstar IV (Reichard, Buffalo, N.Y.) using a 100× oil immersion lens. The color images were analyzed using a Pixera digital camera and stored in JPG format. The same assay was also utilized for determining peptide cellular import in other cell lines, including PC3, LNCaP, and neuroblastoma N2a cells.

[4] = system: NF-κB nuclear translocation in DU145 cells; test: Western blot analysis of NF-κB p50 protein in nuclear extracts; format: cell-based, Human; conditions: CB5005 30 μM, CB5003 90 μM, CB5007 30 μM for 30 min, then TNF-α 10 ng/ml 1 h
Protocol: (§1) PCA cells were grown on 60-mm dishes to a confluence of 70-80%. The cells were incubated with different concentrations of peptides for 30 min at 37° C., followed by treatment with TNF-α (10 ng/ml) for an additional 1 h at 37° C., as indicated, or incubated with peptide alone for 16 hours. After the treatment, cells were washed with ice-cold PBS and lysed in 500 μl of buffer A (10 mM HEPES, pH 7.9, 10 mM KCl, 0.1 mM EDTA, 0.1 mM EGTA, 0.4% Nonidet P-40, 1 mM DTT, 0.5 mM PMSF and 1 μg/ml each of leupeptin, aprotinin, pepstatin, chymostatin and antipain) on ice for 10 min. Nuclei were pelleted by centrifugation at high speed and washed with 500 μl of buffer A. Nuclei were then resuspended in 40 μl of buffer B (20 mM HEPES, pH 7.9, 400 mM NaCl, 1 mM EDTA, 1 mM EGTA, 1 mM DTT, 1 mM PMSF and 1 μg/ml each of leupeptin, aprotinin, pepstatin, chymostatin and antipain). The protein concentration of nuclear extract was determined using Pierce BCA protein assay and equalized among samples using buffer B.
(§2) Equal amounts of proteins were heat-treated in 2×SDS sample loading buffer at 100° C. for 5 minutes and fractionated by 10% SDS polyacrylamide electrophoresis. The proteins were transferred to nitrocellulose paper. After blocking with 5% nonfat milk in TBS (10 mM Tris-HCl, pH 7.6, 70 mM NaCl and 0.05% Tween 20) for 30 minutes, nuclear NFκB p50 was detected by using an anti-p50 IgG antibody (1:5000), (Upstate, Lake Placid, N.Y.). The primary antibody was visualized with horseradish peroxidase-coupled secondary antibody by using ECL western blotting system as described in manufacturer's protocol (Pierce, Rockford, Ill.).

[5] = system: NF-κB nuclear translocation in LNCaP cells; test: as above; format: cell-based, Human; conditions: peptide 30 min, then TNF-α 10 ng/ml 1 h
Protocol: as §1, §2

DU145 cells [6] = test: Annexin V/PI fluorescence microscopy apoptosis assay; format: cell-based, Human; conditions: cisplatin 5 μg/ml alone, 5 h
Protocol: DU145 cells were grown on 4-well chamber slides to a confluence of 70-80%. Cells were then treated with CB5005 peptide (SEQ ID NO: 4) (30 μM) or diluent for 30 min at 37° C. followed by cisplatin (5 μg/ml) for an additional 5 h. […] The chamber slides were mounted in Poly/mount (Polysciences, Warrington, Pa.) and analyzed with a fluorescence microscope (Microstar IV, Reichard, Buffalo, N.Y.) using ×100 oil immersion lens. The color images were analyzed by a Pixera digital camera and stored in JPG format.

PC3 cells = test: In vitro cytotoxicity assay (MTS); format: cell-based, Human; conditions: PC3, 30 μM, 24 h
Protocol: (§3) LNCaP, DU145, PC3, or neuroblastoma N2a cells were grown in 96-well plates to a confluence of 60%. The treatments with different concentrations of peptide were performs in quadruplicates in a total volume of 100 μl in RPMI without serum for 24 h at 37° C. The cells were then washed and incubated at 37° C. with 100 μl phenol-red free RPMI containing 20 μl of the CellTiter 96 AQueous Solution reagent (Promega, Madison, Wis.) for 1 h. The absorbency in each well was recorded at 490 nm using a Microplate Autoreader EL 309 (Bio-Tek Instruments, Winooski, Vt.). The absorbency reflects directly the number of viable cells. Blanks were subtracted from all data. The data were then analyzed using Prism software (GraphPad Software Inc., San Diego, Calif.) and expressed as a mean ±SE of three independent experiments. Statistical significance was performed by one way ANOVA and consider significant if p<0.05.

LNCaP cells = test: In vitro cytotoxicity assay (MTS); format: cell-based, Human; conditions: 24 h at 37° C.
Protocol: as §3

DU145 cells [7] = test: In vitro cytotoxicity assay (MTS); format: cell-based, Human; conditions: DU145, 30 μM, 24 h
Protocol: as §3

[8] = Quantitative indirect immunofluorescence assay of peptide cellular import (96-well plates); format: cell-based; conditions: from time-dependent fluorescence accumulation, 1-20 h
From the text: This indirect immunofluoresence assay was also utilized to quantitate peptide cellular import. Briefly, cells grown in 96-well plates will be treated with peptides for different time periods, and then subjected to an indirect immunofluorescence assay using anti-peptide antibody and FITC-labeled anti-rabbit antibody as described above. Cells were then lysed with 10% SDS and the fluorescence in the soluble cell solutions was quantified by a Cytofluor™ 2300 reader (Millipore) at 485/560 nm. The fluorescence readings were calculated by subtracting […] of peptide-untreated sample. The data were expressed as mean ±SEM of three independent experiments performed in quintuplicate samples. The kinetics of imported CB5005 peptide (SEQ ID NO: 4) was studied by using this quantitative.

neuroblastoma N2a cells = test: In vitro cytotoxicity assay (MTS); format: cell-based; conditions: 24 h at 37° C.
Protocol: as §3

Compound | sensitizing activity to cisplatin-induced apoptosis (TUNEL) (DU145 cells [1]) | induction of apoptosis by co-treatment with cisplatin (flow cytometry) (DU145 cells [2]; 21 h) | cellular import activity (DU145 cells [3]) | TNF-α-induced NF-κB nuclear translocation [4] | TNF-α-induced NF-κB nuclear translocation [5] | also measured
CB5002: control peptide with a mutant, non-functional CPS located N-terminal to the NLS (LALLAPVQRKRQKLMP) | not | did not show significant effect | not active | – | – | –
CB5007: control peptide corresponding to CB5005 except that two basic residues in the NF-kB p50 NLS are mutated (KR-NG) (KLKLALALALAVQRNGQKLMP) | not | – | – | did not have an inhibitory effect | did not have an inhibitory effect | –
N.N.[Cl][Pt][Cl] [cisplatin, reference compound] | – | – | – | – | – | induction of apoptosis (flow cytometry) (DU145 cells [2]; cisplatin 5 μg/ml alone, 21 h): ineffective; induction of apoptosis (annexin V-FITC staining) (DU145 cells [6]): ineffective
CB5003: analogous peptide possessing only a portion of the CPS (SEQ ID NO: 1) N-terminal to the NF-κB p50 NLS (LALALAVQRKRQKLMP) | active, although at a much lower level | active but to a much less extent | much weaker import activity | inhibited | inhibited | synergistic activity in enhancing the apoptosis induced by cisplatin (dependence on concentration) (DU145 cells [2]; DU145, flow cytometry): concentration-dependent
CSCC[C@H](NC(=O)[C@H](CC(C)C)NC(=O)[C@H](CCCCN)NC(=O)[C@H](CCC(N)=O)NC(=O)[C@H](CCCNC(=N)N)NC(=O)[C@H](CCCCN)NC(=O)[C@H](CCCNC(=N)N)NC(=O)[C@H](CCC(N)=O)NC(=O)[C@@H](NC(=O)[C@H](C)NC(=O)[C@H](CC(C)C)NC(=O)[C@H](C)NC(=O)[C@H](CC(C)C)NC(=O)[C@H](C)NC(=O)[C@H](CC(C)C)NC(=O)[C@H](C)NC(=O)[C@H](CC(C)C)NC(=O)[C@H](CCCCN)NC(=O)[C@H](CC(C)C)NC(=O)[C@@H](N)CCCCN)C(C)C)C(=O)N1CCC[C@H]1C(=O)O [CB5005] (H-KLKLALALALAVQRKRQKLMP-OH; N-terminus and C-terminus assumed) | – | – | – | – | – | cytotoxicity (MTS), peptide-untreated vs treated samples (PC3 cells): Statistical significance (p<0.05); cytotoxicity (MTS) (LNCaP cells): not toxic; cytotoxicity (MTS), peptide-untreated vs treated samples (DU145 cells [7]): Statistical significance (p<0.05); stability in intracellular compartments [8]: relatively stability; cytotoxicity (MTS) (neuroblastoma N2a cells): did not result in toxicity

— patent publication US7408022B2, “Composition and method for increasing apoptosis in cancer cells” (Celtek Bioscience, LLC, priority 2004, dated 2008)
